Data reported in ChEMBL document CHEMBL1165917, “Synthesis and NMDA receptor affinity of fluorinated dioxadrol analogues” (Bioorg Med Chem, 2010).

Columns and labels:
Rattus norvegicus = species on record: Rattus norvegicus; settings: at 1 µM
[1] = Displacement of [3H]-(+)-MK801 from PCP binding site of NMDA receptor from pig brain cortex after 150 mins by scintillation counting; set-up: species or system Sus scrofa
[2] = target: Sigma non-opioid intracellular receptor 1 (Cavia porcellus, UniProt Q60492); assay: Displacement of [3H](+)-pentazocine from sigma1 opioid receptor from guinea pig brain cortex after 150 mins by scintillation counting
[3] = target: Sigma non-opioid intracellular receptor 1 (Cavia porcellus) (UniProt Q60492); settings: at 1 µM
Description: Displacement of [3H](+)-pentazocine from sigma1 opioid receptor from guinea pig brain cortex at 1 uM after 150 mins by scintillation counting

Sus scrofa = species on record: Sus scrofa; settings: at 1 µM
Description: Displacement of [3H]-(+)-MK801 from PCP binding site of NMDA receptor from pig brain cortex at 1 uM after 150 mins by scintillation counting

[4] = Displacement of [3H]ditolylguanidine from sigma2 opioid receptor from rat brain cortex after 150 mins by scintillation counting

Chain of Sigma non-opioid intracellular receptor 1 (Cavia porcellus) (Q60492 whole entry): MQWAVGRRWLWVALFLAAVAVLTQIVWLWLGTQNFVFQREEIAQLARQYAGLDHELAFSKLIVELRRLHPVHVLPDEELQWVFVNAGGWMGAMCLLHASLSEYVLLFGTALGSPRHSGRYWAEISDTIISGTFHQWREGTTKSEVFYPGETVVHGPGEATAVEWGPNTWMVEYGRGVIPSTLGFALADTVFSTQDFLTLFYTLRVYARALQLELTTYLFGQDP
Chain of Sigma non-opioid intracellular receptor 1 (Q60492 whole entry): as above

| SMILES | inhibition (Rattus norvegicus) | Ki [1] | Ki [2] | inhibition [3] | inhibition (Sus scrofa) | Ki [4] |
| --- | --- | --- | --- | --- | --- | --- |
| OC1CCNC(C2COC(c3ccccc3)(c3ccccc3)O2)C1 (racemic) | 13% | 44 nM | 971 nM |  |  |  |
| FC1CCNC(C2COC(c3ccccc3)(c3ccccc3)O2)C1 (racemic; form 2) [listing 1 of 2 here] |  | 27 nM |  |  |  |  |
| FC1CCNC(C2COC(c3ccccc3)(c3ccccc3)O2)C1 (racemic; form 2) [listing 2 of 2 here] | 19% |  |  | 5% |  |  |
| FC1CCNC(C2COC(c3ccccc3)(c3ccccc3)O2)C1 (racemic; form 1) | 19% |  |  | 5% | 0% |  |
| FC1(F)CCNC(C2COC(c3ccccc3)(c3ccccc3)O2)C1 (racemic) | 17% | 81 nM | 810 nM | 0% | 58% | 137 nM |
| CC12CC3CC(C)(C1)CC(N)(C3)C2 [MEMANTINE] |  | 1200 nM |  |  |  |  |
| O=C1CCNC(C2COC(c3ccccc3)(c3ccccc3)O2)C1 (racemic) |  | 470 nM |  | 0% |  |  |
